Assay results as given in patent publication US12303479B2, “Chloride intracellular channel 1 for regulation of food intake” (The Regents of the University of California, priority 2019, dated 2025).

Legend:
[1] = molecular target: T1, Clic1 (Mus musculus, UniProt Q9Z1Q5); assay: Chronic Clic1 inhibition in diet-induced obese high fat diet-fed mice, 7 days; type: in vivo, C57B16 WT mice; set-up: endogenous in cells; host or cells: whole live mice (C57B16 WT in the 7-day study); hypothalamus discussed as the site of action; details: IAA94 50 mg/kg IP daily
Description: Diet-induced obese mice (fed high fat diet for 6 weeks) were injected with IAA94 (50 mg/kg, IP, daily) or vehicle. Their daily food intake and body weight were monitored. Sacrifices were performed on day 7. […] On day 7 mice were fasted for 5 hours and then treated with IAA94 or VEH and then blood collected one hour later for measurement of leptin (FIG. 7C) GDF-15 (FIG. 7D) insulin (FIG. 7E), and glucose (FIG. 7F). FIGS. 7G-7J show hypothalamic neuropeptide levels determined by quantitative PCR detection. In FIGS. 7A-7B, P<0.05 repeated measures one-way ANOVA with Sidak's multiple comparisons test. In FIGS. 7C-7J, P<0.05 students t-test.

[2] = molecular target: T1, Clic1; assay: Fasting and re-feeding model: food intake and hypothalamic neuropeptide expression after acute IAA94; type: in vivo, mice; set-up: endogenous in cells; host or cells: whole live mice (C57B16 WT in the 7-day study); hypothalamus discussed as the site of action
Description: To determine whether the modulation of Clic1 directly affected food intake, mice were treated with a specific Clic1 inhibitor, IAA94^11. Mice were fasted for 23 hours and then treated with either vehicle or IAA94 (50 mg/kg IP) and then re-fed for 1 hour. […] No changes in AgRP or Cart expression were detected.
FIGS. 1A-1C show the role of Clic1 in food intake.
FIGS. 5A-5C show acute studies in which Clic1 inhibition decreases food intake. HET/KO mice are viable, fertile and appear normal. Floxed mice are available at PMID: 20049953 Sydney. […] Male mice were injected with IAA94 (50 mg/kg) or vehicle and then refed. IAA94 (indanyloxyacetic acid 94) is a Clic1 inhibitor that blocks channels and has enzymatic properties.

[3] = molecular target: T1, Clic1; assay: Chronic IAA94 treatment in diet-induced obese mice, 23 days, alone or with Lira; type: in vivo; set-up: endogenous in cells; host or cells: whole live mice (C57B16 WT in the 7-day study); hypothalamus discussed as the site of action; details: daily injections, FIG. 8A
Description: FIGS. 8A-8I show another study on chronic IAA94 treatment. Diet-induced obese mice (fed a high fat diet for 6 weeks) received daily injections of either i) vehicle, ii) IAA94—10 mg/kg, iii) IAA94—50 mg/kg, iv) Lira, or v) combination of Lira+IAA94 (50 mg/kg). Daily food intake and body weight were monitored. Sacrifices were performed after 23 days.

[4] = molecular target: Clic1 (Homo sapiens, UniProt O00299); details: cited from earlier work
[5] = mice fasted 23 hours, IAA94 50 mg/kg IP, re-fed for 1 hour

Row | SMILES | food intake ([1]; 7 days) | reduction of body weight ([1]; one week) [%] | hyperphagia in response to refeeding ([2]; IAA94 50 mg/kg, FIG. 1C) | food intake versus amount of IAA94 administered ([2]; male mice, fasting and re-feeding model, FIG. 5C) | AgRP expression (hypothalamic) [2, 5] | Cart expression (hypothalamic) [2, 5] | Pome expression (hypothalamic) [2, 5] | hypothalamic levels of Npy [2, 5] | reduction of food intake compared with vehicle treated mice [2, 5] [%] | weight loss on chronic treatment [3] | inhibition of Clic1 [4]
1 | C[C@]1(C2CCCC2)Cc2cc(OCC(=O)O)c(Cl)c(Cl)c2C1=O [IAA94, R(+)-[(6,7-Dichloro-2-cyclopentyl-2,3-dihydro-2-methyl-1-oxo-1H-inden-5-yl)-oxy]acetic acid] | significant reduction in food intake | ~12 | decreased hyperphagia | dose dependent | No changes | No changes | increased | significant reduction | ~50 | significant weight loss | 
2 | CN(C)C(=N)NC(=N)N [metformin, N,N-dimethylbiguanide] |  |  |  |  |  |  |  |  |  |  | inhibits Clic1
